Experimental data taken from patent US20210299038A1, “METHOD TO PREVENT AND TREAT OCULAR CATARACT BY CALCIUM CHANNEL BLOCKERS, ANGIOTENSIN CONVERTING ENZYME INHIBITORS, AND ANGIOTENSIN RECEPTOR BLOCKERS” (priority 2018, published 2021).

Assays:
ocular cataract [1] = experiment: Prevention of recurrence of ocular cataract in a successfully treated patient, one eye treated, other eye untreated; assay type: in vivo, human; conditions: untreated eye shows recurrence
Excerpt: A composition comprising the calcium channel blocker nifedipine is directly applied to the vitreous surface of one eye while the other eye is left untreated. […] A composition comprising the ACE inhibitor enalapril is directly applied to the vitreous surface of one eye while the other eye is left untreated. […] A composition comprising the angiotensin receptor blocker losartan is directly applied to the vitreous surface of one eye while the other eye is left untreated. […] A composition comprising the calcium channel blocker nifedipine is applied to the eye by intravitreal or intraocular injection while the other eye is left untreated. […] A composition comprising the ACE inhibitor enalapril is applied to the eye by intravitreal or intraocular injection while the other eye is left untreated. […] A composition comprising the angiotensin receptor blocker losartan is applied to the eye by intravitreal or intraocular injection while the other eye is left untreated.

ocular cataract [2] = experiment: Treatment of a patient diagnosed with ocular cataract, one eye treated, other eye untreated; assay type: in vivo, human
Excerpt: A patient is diagnosed with ocular cataract. A composition comprising the calcium channel blocker nifedipine is directly applied to the vitreous surface of one eye while the other eye is left untreated. […] A patient is diagnosed with ocular cataract. A composition comprising the ACE inhibitor enalapril is directly applied to the vitreous surface of one eye while the other eye is left untreated. […] A patient is diagnosed with ocular cataract. A composition comprising the angiotensin receptor blocker losartan is directly applied to the vitreous surface of one eye while the other eye is left untreated. […] A patient is diagnosed with ocular cataract. A composition comprising the calcium channel blocker nifedipine is applied to the eye by intravitreal or intraocular injection while the other eye is left untreated. […] A patient is diagnosed with ocular cataract. A composition comprising the ACE inhibitor enalapril is applied to the eye by intravitreal or intraocular injection while the other eye is left untreated. […] A patient is diagnosed with ocular cataract. A composition comprising the angiotensin receptor blocker losartan is applied to the eye by intravitreal or intraocular injection while the other eye is left untreated.

cataract opacities = conditions: 3119 participants aged 55 to 80; after 10 years of supplementation; cited from earlier work
[3] = composition applied by intravitreal or intraocular injection
[4] = composition directly applied to the vitreous surface of one eye

| Compound | development (recurrence) of ocular cataract in treated eye (ocular cataract [1]; [3]) | development (recurrence) of ocular cataract in treated eye (ocular cataract [1]; [4]) | symptoms of ocular cataract in treated eye versus untreated eye (ocular cataract [2]; [3]) | symptoms of ocular cataract in treated eye versus untreated eye (ocular cataract [2]; [4]) | nuclear cataract score opacities (cataract opacities) |
| --- | --- | --- | --- | --- | --- |
| CCOC(=O)[C@H](CCc1ccccc1)N[C@@H](C)C(=O)N1CCC[C@H]1C(=O)O [enalapril] | not develop ocular cataract | not develop ocular cataract | reduced symptoms of ocular cataract | reduced symptoms of ocular cataract | – |
| CCCCc1nc(Cl)c(CO)n1Cc1ccc(-c2ccccc2-c2nn[nH]n2)cc1 [losartan] | not develop ocular cataract | not develop ocular cataract | reduced symptoms of ocular cataract | reduced symptoms of ocular cataract | – |
| CC1=C[C@H](O)CC(C)(C)[C@H]1/C=C/C(C)=C/C=C/C(C)=C/C=C/C=C(C)/C=C/C=C(C)/C=C/C1=C(C)C[C@@H](O)CC1(C)C [lutein] | – | – | – | – | No reduction |
| CC1=C(/C=C/C(C)=C/C=C/C(C)=C/C=C/C=C(C)/C=C/C=C(C)/C=C/C2=C(C)C[C@@H](O)CC2(C)C)C(C)(C)C[C@H](O)C1 [zeaxanthin] | – | – | – | – | No reduction |
